The values that follow come from patent US10463644B2, “Uses of sesquiterpene lactone compounds and their derivatives in drugs preparation” (ACCENDATECH, priority 2013, dated 2019).

This experiment relates to normal cells. Description: Survival rate of normal cells after test compound is added (flow cytometry, Annexin V-FITC/PI). Type of experiment: cell-based. The conditions noted are these: 18 h. An excerpt: Take fresh or cryopreserved clinical specimen (acute myelogenous leukemia (AML, marker is CD34^+/CD38^+), chronic myelogenous leukemia (CML, Ph+/CD34+/CXCR4+), chronic lymphocytic leukemia (CLL,CD133+/CD19−/CD38−), skin cancer (CD34+), breast cancer (CD44+/CD24−/ESA+), ovarian cancer (CD44+/CD117+), brain tumor (CD133+) prostate cancer (CD44+/CD24−), head-neck squamous cell carcinoma (CD44+), laryngeal cancer (CD133+), pancreatic cancer (ESA+/CD44+/CD24+), retinoblastoma (ABCG2/ALDH1), Children hepatoblastoma (CD34+/THY1+/c-kit+), liver cancer (CD133+), malignant melanoma (CD133+), colorectal cancer (EpCAM^high/CD44+), colon adenocarcinoma (CD44^high), glioma (ABCG-2/BCRP1), gastrointestinal tumor (ABCG-2/BCRP1), nasopharynx cancer (ABCG2), brain glioma (Dlk-1/Pref-1), gastric cancer (CD45+), lung adenocarcinoma (Sca-1/CD45-/Pecam-/CD34+), lung cancer (CD133+CD34+CD44+)) of patient. Take the acute myelogenous leukemia as the example, conduct density gradient centrifugation with Ficoll and take out the middle mononuclear cells, re-suspend it with serum-free IMDM after centrifuged. Adjust the concentration of cells into 1×10^6/mL and lay 24-well plate with 1 mL in each well, and then treat 18 hours with the compound to select with corresponding concentration. Collect the cells and centrifuge them at 1500 rps for 8 minutes, re-suspend the precipitation with […], mark the antibodies related to leukemia stem cell, avoid light to incubate 30 minutes at room temperature and then centrifuge it at 1500 rps, then wash away the unbound antibody CD34^+CD38^+. Re-suspend it with 100 μl 1× Binding Buffer and add respectively 5 μl Annexin V-FITC and PI, then avoid light to incubate 15 minutes before add 200 μl 1× Binding Buffer, then use flow cytometry to examine the marked apoptosis within one hour.

The mark [1] stands for this setting: read-out: Survival rate (%) All cells (Stem cells and ordinary cells).
[2] abbreviates: read-out: Survival rate (%) Stem cells.

Like-named read-outs stand apart in the source and are kept apart here.

Turning to `[2H][C@@]1(CN(C)C)C(=O)O[C@@H]2[C@@H]3[C@@H](CCC34CC4)C3(CC[C@H]21)CC3` [Compound 46], under setting [1], the viability at 10 µM worked out at 95% and the viability at 20 µM was 94%. For the same compound, under setting [2], the viability at 10 µM was 94% and the viability at 20 µM amounted to 92%.
In the case of `CCOC(=O)[C@@H]1CCCN1C[C@@H]1C(=O)O[C@H]2[C@H]1CCC1(CC1)[C@@H]1CCC3(CC3)[C@H]21` [Compound 29], the viability at 10 µM reads like this: under setting [1], 96%; under setting [2], 93%. For the same compound, the viability at 20 µM is, setting by setting: under setting [1], 95%; under setting [2], 92%.
The like results for `C=C1C(=O)O[C@@H]2[C@@H]3[C@@H](CC[C@@]3(C)O)C(=C)CC[C@@H]12` [Compound 48] were, in that order, 92%, 91%, 91% and 89%.
Consider `CC1=C2CC[C@@](C)(O)[C@@H]2[C@H]2OC(=O)[C@@H](CN(C)C)[C@@H]2CC1` [Compound 23], for which, under setting [1], the viability at 10 µM is 96% and the viability at 20 µM was 95%. In addition, under setting [2], the viability at 10 µM was found to be 93% and the viability at 20 µM came to 92%.
For the compound `C=C1C(=O)O[C@H]2[C@H]1CCC(C)=C1CC[C@@](C)(OC(=O)CCCc3cn(CCCCCCO)nn3)[C@@H]12` [Compound 21], under setting [1], the viability at 10 µM is 95% and the viability at 20 µM was found to be 94%. Further, under setting [2], the viability at 10 µM is 94% and the viability at 20 µM was 92%.
Consider `C=C1C(=O)O[C@H]2[C@H]1CC[C@@](C)(OC)C1CC[C@@](C)(O)[C@@H]12` (stereo partly shown) [Compound 47], for which the viability at 10 µM reads like this: under setting [1], 95%; under setting [2], 93%. Further, the viability at 20 µM is, setting by setting: under setting [1], 94%; under setting [2], 92%.
For the compound `C=C1C(=O)O[C@H]2[C@H]1CC[C@]1(C)O[C@@]13CC[C@@](C)(O)[C@H]23` [Compound 24], the viability at 10 µM is, setting by setting: under setting [1], 93%; under setting [2], 92%. In addition, the viability at 20 µM is, setting by setting: under setting [1], 92%; under setting [2], 90%.
Turning to `CN(C)C[C@@H]1C(=O)O[C@H]2[C@H]1CCC1(CC1)[C@@H]1CCC3(CC3)[C@H]21` [Compound 27], under setting [1], the viability at 10 µM stood at 91% and the viability at 20 µM was 89%. Under setting [2], the viability at 10 µM was 88% and the viability at 20 µM was determined as 81%.
`C=C1CC[C@H]2C(=C)CC[C@H]3C(=C)C(=O)O[C@@H]3[C@@H]12` [Compound 25]: under setting [1], the viability at 10 µM worked out at 93% and the viability at 20 µM was determined as 91%. For the same compound, under setting [2], the viability at 10 µM was 89% and the viability at 20 µM was 88%.
For `C=C1C(=O)O[C@@H]2[C@H]3C(C)=CC[C@@]34O[C@@]4(C)CC[C@@H]12` [Compound 50] the same measures were 92%, 91%, 90% and 89%.
The like results for `C=C1C(=O)O[C@@H]2[C@@H]3[C@@H](CC[C@@]3(C)O)[C@](C)(O)CC[C@@H]12` [Compound 49] were, in that order, 96%, 95%, 94% and 92%.
For `C=C1C(=O)O[C@@H]2[C@@H]3[C@@H](CCC34CC4)C3(CC[C@@H]12)CC3` [Compound 26] the same measures were 95%, 94%, 94% and 93%.
Regarding `CN(C)C[C@@H]1C(=O)O[C@H]2[C@H]1CCC1(CC1)[C@@H]1CCC3(CC3)[C@H]21` [Compound 35], under setting [1], the viability at 10 µM amounted to 95% and the viability at 20 µM is 94%. Under setting [2], the viability at 10 µM is 91% and the viability at 20 µM is 90%.
